Test results reported in patent US20050265999A1, “Modulation of 5-HT2 receptors as a treatment for cardiovascular diseases” (Myogen, Inc., priority 2003, published 2005).

Key:
5-HT1 = assay: Radioligand receptor binding assay
Method: (§1) Receptor binding assays. Receptor binding assays were performed by MDS Pharma services. Assays included: Adenosine A1 (cat# 200510), Adenosine A2A (cat# 200610), Adenosine A3 (cat# 200720), Adrenergic alpha 1 (cat# 203500), Imidazoline 12 central (cat# 241000), Imidazoline I2 peripheral (cat# 241100), Inositol triphosphate (cat# 242500), Phorbol Ester (cat# 264500), 5-HT 2B (cat# 271700), and 5-HT 4 (cat# 272000).
(§2) • Summary of radioligand binding assays for 11 receptors. Data represent % inhibition of ligand binding in the presence of 10 μM 18264 (n=2).
(§3) • Summary of radioligand binding assays for three receptors. Data represent % inhibition of ligand binding in the presence of 10 μM 20068 (n=2).

5-HT4 = target: T1, 5-HT4 (Cavia porcellus, UniProt O70528); assay: Radioligand receptor binding assay (MDS Pharma)
T1 construct: purchased MDS Pharma services 272000
T1 sequence (O70528 whole entry): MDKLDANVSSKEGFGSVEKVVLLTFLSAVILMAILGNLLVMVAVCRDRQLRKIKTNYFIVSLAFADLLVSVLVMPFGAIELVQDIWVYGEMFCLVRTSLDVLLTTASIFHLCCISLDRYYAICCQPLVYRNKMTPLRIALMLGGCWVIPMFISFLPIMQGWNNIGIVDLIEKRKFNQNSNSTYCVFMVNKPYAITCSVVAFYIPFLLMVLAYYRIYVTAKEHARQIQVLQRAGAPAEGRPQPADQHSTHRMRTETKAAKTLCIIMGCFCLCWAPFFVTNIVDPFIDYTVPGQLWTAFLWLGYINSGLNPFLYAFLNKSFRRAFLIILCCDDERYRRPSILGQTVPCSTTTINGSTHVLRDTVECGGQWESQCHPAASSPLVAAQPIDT
Method: as §1, §2

Adenosine A1 = target: T2, Adenosine A1 (Homo sapiens, UniProt P30542); assay: Radioligand receptor binding assay (MDS Pharma); settings: 10 μM compound, n=2
T2 construct: purchased MDS Pharma services 200510
T2 sequence (P30542 1-326): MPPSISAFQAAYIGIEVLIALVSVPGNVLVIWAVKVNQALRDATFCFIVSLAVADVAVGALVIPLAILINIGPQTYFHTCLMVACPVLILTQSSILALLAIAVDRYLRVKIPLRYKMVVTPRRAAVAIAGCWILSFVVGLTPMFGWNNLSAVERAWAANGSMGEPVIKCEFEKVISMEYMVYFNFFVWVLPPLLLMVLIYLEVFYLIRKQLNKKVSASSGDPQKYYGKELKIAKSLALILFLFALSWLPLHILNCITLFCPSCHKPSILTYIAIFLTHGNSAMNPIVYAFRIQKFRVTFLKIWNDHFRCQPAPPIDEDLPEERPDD
Method: as §1, §2

Adenosine A2A = target: T3, Adenosine A2A (Homo sapiens, UniProt P29274); assay: Radioligand receptor binding assay (MDS Pharma); settings: 10 μM compound, n=2
T3 construct: purchased MDS Pharma services 200610
T3 sequence (P29274 whole entry): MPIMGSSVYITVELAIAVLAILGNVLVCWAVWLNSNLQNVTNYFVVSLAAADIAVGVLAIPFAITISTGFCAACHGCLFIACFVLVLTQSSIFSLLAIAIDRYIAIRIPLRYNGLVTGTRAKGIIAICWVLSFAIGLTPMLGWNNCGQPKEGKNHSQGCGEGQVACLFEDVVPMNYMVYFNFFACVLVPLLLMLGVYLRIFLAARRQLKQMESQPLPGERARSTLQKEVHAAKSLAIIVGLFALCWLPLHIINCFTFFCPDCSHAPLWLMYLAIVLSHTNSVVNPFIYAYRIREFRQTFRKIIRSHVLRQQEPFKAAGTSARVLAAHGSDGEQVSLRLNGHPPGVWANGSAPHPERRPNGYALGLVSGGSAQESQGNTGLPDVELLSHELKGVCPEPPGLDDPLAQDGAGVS
Method: as §1, §2

Adenosine A3 = target: T4, Adenosine A3 (Homo sapiens, UniProt P0DMS8); assay: Radioligand receptor binding assay (MDS Pharma); settings: 10 μM compound, n=2
T4 construct: purchased MDS Pharma services 200720
T4 sequence (P0DMS8 1-318): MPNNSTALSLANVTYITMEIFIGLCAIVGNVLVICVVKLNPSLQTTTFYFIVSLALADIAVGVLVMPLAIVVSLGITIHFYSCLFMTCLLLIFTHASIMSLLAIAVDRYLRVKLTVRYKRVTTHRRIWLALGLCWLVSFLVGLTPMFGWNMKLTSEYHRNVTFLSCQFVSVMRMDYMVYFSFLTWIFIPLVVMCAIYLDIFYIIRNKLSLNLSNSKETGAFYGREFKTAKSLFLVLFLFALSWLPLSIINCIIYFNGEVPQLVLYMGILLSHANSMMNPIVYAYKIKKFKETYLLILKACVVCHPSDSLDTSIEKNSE
Method: as §1, §2

Adrenergic alpha 1 = assay: Radioligand receptor binding assay (MDS Pharma); settings: 10 μM compound, n=2
Method: as §1, §2

Imidazoline I2, central = assay: Radioligand receptor binding assay (MDS Pharma); settings: 10 μM compound, n=2
Method: as §1, §2

[1] = tested on: Imidazoline I2, peripheral; assay: Radioligand receptor binding assay (MDS Pharma); settings: 10 μM compound, n=2
Method: as §1, §2

[2] = target: T5, Inositol Triphosphate IP3 (Rattus norvegicus, UniProt P29994); assay: Radioligand receptor binding assay (MDS Pharma); settings: 10 μM compound, n=2
T5 construct: purchased MDS Pharma services 242500
T5 sequence (P29994 whole entry): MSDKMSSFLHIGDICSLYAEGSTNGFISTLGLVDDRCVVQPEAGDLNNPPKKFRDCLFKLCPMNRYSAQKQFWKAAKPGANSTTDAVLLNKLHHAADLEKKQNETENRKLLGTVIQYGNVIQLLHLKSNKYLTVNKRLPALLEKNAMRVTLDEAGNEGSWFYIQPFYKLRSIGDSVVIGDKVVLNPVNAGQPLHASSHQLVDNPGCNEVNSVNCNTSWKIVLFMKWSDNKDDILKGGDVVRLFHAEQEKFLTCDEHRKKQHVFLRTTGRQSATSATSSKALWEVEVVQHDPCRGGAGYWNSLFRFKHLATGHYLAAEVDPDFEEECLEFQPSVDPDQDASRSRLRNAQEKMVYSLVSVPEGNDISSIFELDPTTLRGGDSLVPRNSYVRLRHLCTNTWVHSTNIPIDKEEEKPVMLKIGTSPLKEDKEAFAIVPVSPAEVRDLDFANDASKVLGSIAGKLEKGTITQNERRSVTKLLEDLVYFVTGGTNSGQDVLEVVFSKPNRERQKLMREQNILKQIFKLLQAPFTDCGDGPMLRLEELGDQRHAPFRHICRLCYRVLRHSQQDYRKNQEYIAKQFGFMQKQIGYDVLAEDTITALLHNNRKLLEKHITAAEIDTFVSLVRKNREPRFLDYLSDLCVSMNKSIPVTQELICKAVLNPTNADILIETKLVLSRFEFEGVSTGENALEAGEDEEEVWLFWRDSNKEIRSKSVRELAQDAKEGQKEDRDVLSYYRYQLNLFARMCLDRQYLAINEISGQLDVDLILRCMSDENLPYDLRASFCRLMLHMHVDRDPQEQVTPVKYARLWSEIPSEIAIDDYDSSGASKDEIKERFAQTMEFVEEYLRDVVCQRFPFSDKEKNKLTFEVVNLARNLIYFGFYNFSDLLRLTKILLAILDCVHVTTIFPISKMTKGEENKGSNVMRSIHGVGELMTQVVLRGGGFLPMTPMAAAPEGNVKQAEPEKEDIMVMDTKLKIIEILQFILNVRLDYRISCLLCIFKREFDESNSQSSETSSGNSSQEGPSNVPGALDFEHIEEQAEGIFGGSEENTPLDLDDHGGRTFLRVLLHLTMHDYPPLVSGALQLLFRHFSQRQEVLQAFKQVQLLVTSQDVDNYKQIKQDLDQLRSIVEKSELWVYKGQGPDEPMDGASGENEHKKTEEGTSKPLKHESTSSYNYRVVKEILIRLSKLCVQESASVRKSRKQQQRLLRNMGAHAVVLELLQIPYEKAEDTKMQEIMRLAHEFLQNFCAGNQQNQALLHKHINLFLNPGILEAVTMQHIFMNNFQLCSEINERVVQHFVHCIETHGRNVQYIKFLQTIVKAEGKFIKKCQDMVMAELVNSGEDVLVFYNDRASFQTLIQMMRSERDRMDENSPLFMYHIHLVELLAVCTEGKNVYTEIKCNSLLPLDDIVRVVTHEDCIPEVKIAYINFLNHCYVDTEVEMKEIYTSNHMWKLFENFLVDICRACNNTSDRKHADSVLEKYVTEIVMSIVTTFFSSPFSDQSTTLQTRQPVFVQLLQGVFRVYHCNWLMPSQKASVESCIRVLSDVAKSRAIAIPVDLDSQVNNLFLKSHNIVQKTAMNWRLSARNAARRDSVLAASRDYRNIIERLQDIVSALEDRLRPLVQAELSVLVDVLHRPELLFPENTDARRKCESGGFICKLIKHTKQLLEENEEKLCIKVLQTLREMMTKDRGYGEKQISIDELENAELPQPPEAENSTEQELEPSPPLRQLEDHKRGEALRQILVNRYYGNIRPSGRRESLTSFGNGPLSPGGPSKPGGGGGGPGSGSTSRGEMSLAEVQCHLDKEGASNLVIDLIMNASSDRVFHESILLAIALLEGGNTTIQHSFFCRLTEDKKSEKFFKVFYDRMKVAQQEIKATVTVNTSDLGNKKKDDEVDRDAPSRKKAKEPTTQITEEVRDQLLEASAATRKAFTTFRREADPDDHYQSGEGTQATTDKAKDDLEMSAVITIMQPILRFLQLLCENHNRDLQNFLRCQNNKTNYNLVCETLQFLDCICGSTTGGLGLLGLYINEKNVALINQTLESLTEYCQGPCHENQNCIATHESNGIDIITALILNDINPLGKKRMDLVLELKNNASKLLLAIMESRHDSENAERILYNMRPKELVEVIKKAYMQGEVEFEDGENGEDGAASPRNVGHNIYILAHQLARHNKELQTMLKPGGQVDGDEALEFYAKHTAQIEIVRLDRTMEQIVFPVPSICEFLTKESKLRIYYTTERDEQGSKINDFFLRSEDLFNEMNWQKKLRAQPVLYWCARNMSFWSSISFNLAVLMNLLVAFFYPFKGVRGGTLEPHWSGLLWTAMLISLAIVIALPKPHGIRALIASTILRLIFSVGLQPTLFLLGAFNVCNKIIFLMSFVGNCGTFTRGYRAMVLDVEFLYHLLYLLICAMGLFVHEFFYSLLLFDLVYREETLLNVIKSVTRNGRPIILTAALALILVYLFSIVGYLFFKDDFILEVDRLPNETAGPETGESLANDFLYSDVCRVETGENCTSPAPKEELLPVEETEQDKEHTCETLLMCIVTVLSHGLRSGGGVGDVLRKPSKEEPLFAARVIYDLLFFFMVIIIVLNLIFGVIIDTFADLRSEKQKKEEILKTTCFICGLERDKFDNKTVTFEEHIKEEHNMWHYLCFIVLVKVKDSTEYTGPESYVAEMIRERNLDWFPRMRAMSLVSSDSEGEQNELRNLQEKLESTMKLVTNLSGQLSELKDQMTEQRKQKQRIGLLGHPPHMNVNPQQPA
Method: as §1, §2

Phorbol Ester = assay: Radioligand receptor binding assay (MDS Pharma); settings: 10 μM compound, n=2
Method: as §1, §2

5-HT2B = target: T6, 5-HT2B (Homo sapiens, UniProt P41595); assay: Radioligand receptor binding assay (MDS Pharma); settings: 10 μM compound, n=2
T6 construct: purchased MDS Pharma services 271700
T6 sequence (P41595 whole entry): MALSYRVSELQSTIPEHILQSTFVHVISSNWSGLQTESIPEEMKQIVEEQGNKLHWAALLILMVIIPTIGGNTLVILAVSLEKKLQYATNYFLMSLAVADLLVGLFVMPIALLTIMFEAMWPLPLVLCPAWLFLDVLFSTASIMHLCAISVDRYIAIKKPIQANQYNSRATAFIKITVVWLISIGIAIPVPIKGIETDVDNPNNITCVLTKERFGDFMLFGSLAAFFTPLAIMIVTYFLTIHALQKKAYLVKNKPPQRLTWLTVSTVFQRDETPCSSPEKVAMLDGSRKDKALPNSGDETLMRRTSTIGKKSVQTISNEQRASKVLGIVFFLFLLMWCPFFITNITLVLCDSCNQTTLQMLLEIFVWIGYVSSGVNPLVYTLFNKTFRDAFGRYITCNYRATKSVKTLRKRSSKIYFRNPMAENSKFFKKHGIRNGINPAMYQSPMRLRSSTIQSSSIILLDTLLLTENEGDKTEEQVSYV
Method: as §1, §2, §3

HDAC5 = assay: HDAC localization assay, GFP-HDAC5 in NRVM; assay type: cell-based, rat; settings: NRVM, two hours; 18264 1 μM, PE 20 μM
Method: NRVM culture. For preparations of neonatal rat ventricular myocytes (NRVMs), hearts were removed from 10-20 newborn (1-2 days old) Sprague-Dawley rats. Isolated ventricles were pooled, minced and dispersed by three 20-min incubations at 37° C. in Ads buffer (116 mM NaCl, 20 mM HEPES, 10 mM NaH2PO4, 5.5 mM glucose, 5 mM KCl, 0.8 mM MgSO4, pH 7.4) containing collagenase Type II (65 units/ml, Worthington) and pancreatin (0.6 mg/ml, GibcoBRL). Dispersed cells were applied to a discontinuous gradient of 40.5% and 58.5% (v/v) Percoll (Amersham Biosciences), centrifuged, and myocytes collected from the interface layer. Myocyte preparations were pre-plated in Dulbecco's modified Eagle's medium (DMEM, Cellgro), supplemented with 10% (v/v) fetal bovine serum (FBS, HyClone), 4 mM L-glutamine and 1% penicillin/streptomycin for 1 hour at 37° C. to reduce fibroblast contamination, then plated at a density of 2.5×10^5 cells per well on 6-well tissue culture plates (or 10,000 cells/well on 96-well tissue culture plates) coated with a 0.2% (w/v) gelatin solution. After 24 hours in culture, myocyte preparations were transferred to serum-free maintenance medium (DMEM supplemented with 0.1% (v/v) Nutridoma (Roche), L-glutamine and penicillin/streptomycin). Where indicated, NRVM were treated with test compounds for a period of 48 h. For immunofluorescence applications, NRVM cultures were fixed, incubated with primary antibodies against alpha skeletal actin and atrial natriuretic factor, then incubated with rhodamine- or flurorescein-conjugated secondary antibodies. For HDAC localization assays, NRVM were plated to clear bottomed 96-well plates and infected overnight with recombinant adenovirus encoding HDAC5 fused to green fluorescent protein (multiplicity of infection=50). The next day, medium was replaced with serum-free maintenance medium for 4 hours, and test compounds added. After two hours, NRVM were fixed and imaged by fluorescent microscopy.

% Inhibition of Binding (5-HT1; 10 μM compound, n=2): −25% | binding (in words) (5-HT1; radioligand binding, 10 μM): No significant binding | inhibition at 10 µM (5-HT4; 10 μM compound, n=2): 17% | binding (in words) (5-HT4; radioligand binding, 10 μM): No significant binding | inhibition at 10 µM (Adenosine A1): 17% | inhibition at 10 µM (Adenosine A2A): 14% | inhibition at 10 µM (Adenosine A3): 24% | % Inhibition of Binding (Adrenergic alpha 1): 17% | % Inhibition of Binding (Imidazoline I2, central): 15% | % Inhibition of Binding [1]: 4% | inhibition at 10 µM [2]: 3% | % Inhibition of Binding (Phorbol Ester): 2% | inhibition at 10 µM (5-HT2B): 97%
Structure (SMILES): Cc1c(-c2ccccc2)nc2sc3c(c2c1N)CCCC3 [Compound 18264, 3-Methyl-2-phenyl-5,6,7,8-tetrahydro-benzo[4,5]thieno[2,3-b]pyridin-4-ylamine]
nuclear export of HDAC5-GFP (HDAC5): driven from the nucleus to the cytoplasm
